One data set concerns the target T1, human La antigen (Homo sapiens, UniProt P05455, T302N).
T1 construct: amino acids 100–324 of the human La antigen (plus T302N mutation); 6xHis (N); 6xHis (C); host or cells: Escherichia coli Rosetta cells
T1 sequence (P05455 100-324 T302N): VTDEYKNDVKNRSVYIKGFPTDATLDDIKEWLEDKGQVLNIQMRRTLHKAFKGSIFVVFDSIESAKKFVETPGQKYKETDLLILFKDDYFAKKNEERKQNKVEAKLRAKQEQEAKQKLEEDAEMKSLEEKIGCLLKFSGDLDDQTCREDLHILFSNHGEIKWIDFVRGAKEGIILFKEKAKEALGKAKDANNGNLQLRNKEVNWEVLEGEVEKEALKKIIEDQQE
The data set can be described thus: ALARM NMR. Conditions: 400 μM compound; for ALARM NMR, (-) DTT: 0 mM DTT; for ALARM NMR, (+) DTT: DTT present; for ALARM NMR interpretation: with and without DTT. The data set is classed as binding. The method, boiled down:
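Construct is La residues 100–324, His-tagged, with Ile/Val methyls 13C-labelled, pre-reduced with DTT and then dialysed. Protein (50 μM) was incubated with 400 μM compound ± 20 mM DTT in 25 mM sodium phosphate pH 7.0, 4% DMSO, for 1 h at 37 °C then 15 h at 30 °C. [1H-13C]-HMQC was recorded at 298 K, and shift or intensity changes were scored against DMSO controls.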

Data set [1] in a line: Fluorescence quenching counter-screen. It counts as physicochemical. Conditions: 10 μM fluorophore; 32 nM-100 μM compound. How it is done: Selected test compounds were assessed for fluorescence quenching using adaptions of previously published procedures[9],[24]. Briefly, test compounds and individual fluorophore standards were incubated together. The fluorescence intensity of these mixtures was compared to the fluorescence intensity of the same fluorophore standards minus test compounds. Each microplate contained positive control columns (DMSO plus fixed concentration of a single fluorophore), negative control columns (DMSO), and experimental wells (test compounds plus fixed concentration of a single fluorophore). […] Final concentration of DMSO was constant at 2.0% (v/v). […] All measurements were performed in ALARM NMR buffer (25 mM sodium phosphate, pH 7.0) at 25 °C. Aliquots of 20 μL buffer were dispensed into microplate wells via ThermoFisher Multidrop dispenser. Microplates were shaken for 1 min on a plate shaker, centrifuged briefly for 1 min at 1000×g, then allowed to incubate at RT for 10 min before measuring fluorescence intensity on a SpectraMax M3 plate reader under reduced lighting. Instrument settings for each fluorophore were unchanged from the aforementioned autofluorescence studies.
(The purpose of a counterscreen is to sort out artefacts and off-target activity.)

The test system of the next data set is p300/CBP. Conditions: cited from earlier work; for IC50: original report, 27 (Supplementary References).

“Also recorded” adds a separate entry of the source. Read-outs that look alike come from different tables or passages of the source.

Broadly, the IC50 is the concentration needed to halve the response being measured. For `O=C1/C(=C/c2ccc(O)c(Br)c2)CCC/C1=C\c1ccc(O)c(Br)c1` [Compound 12, HAT inhibitor II], on human La antigen, the “ALARM NMR, (-) DTT” value was “Partial”; the “ALARM NMR, (+) DTT” value is recorded as “Negative”; the “ALARM NMR interpretation” value is “Equivocal”. Also, in data set [1], the Quenching counter-screen entry was “Flagged (Significant fluorescence quenching was defined as signal reduction greater than 25% of the corresponding fluorophore signal at any test compound concentration)”. Further, the concentration for half-maximal inhibition (IC50) in the data set on p300/CBP was 5 µM.
Take `CCCCCCCCCCCCCCCc1cccc(O)c1C(=O)O` [Compound 14, Anacardic acid]: on human La antigen, the “ALARM NMR, (-) DTT” value is recorded as “Positive”; the “ALARM NMR, (+) DTT” value is “Positive”; the “ALARM NMR interpretation” value was “Nonspecific perturbation”. Besides, the Quenching counter-screen entry in data set [1] is listed as “Flagged (Significant fluorescence quenching was defined as signal reduction greater than 25% of the corresponding fluorophore signal at any test compound concentration)”. The IC50 with p300/CBP is 8.5 µM.
For the compound `CCCCCCCc1ccc(CCc2cccc(O)c2C(=O)O)cc1` [Compound 15, MG 149], at human La antigen, the “ALARM NMR, (-) DTT” value is listed as “Positive”; the “ALARM NMR, (+) DTT” value was “Positive”; the “ALARM NMR interpretation” value is “nonspecific protein perturbation; also recorded: potential aggregator”. The Quenching counter-screen result in data set [1] was “Flagged (Significant fluorescence quenching was defined as signal reduction greater than 25% of the corresponding fluorophore signal at any test compound concentration)”. In the data set with p300/CBP (@ 200 µM, ref 19 (Supplementary References)), the “% inhibition, p300/CBP” value is 30%.
As for `CCCC1(c2ccccc2)NC(=O)N(CC(=O)N(C)Cc2c(F)cccc2Cl)C1=O` (stereo not shown) [Compound 21, N-[(2-chloro-6-fluorophenyl)methyl]-2-(2,5-dioxo-4-phenyl-4-propylimidazolidin-1-yl)-N-methylacetamide], at human La antigen, the “ALARM NMR, (-) DTT” value is on record as “Negative”; the “ALARM NMR, (+) DTT” value was “Negative”; the “ALARM NMR interpretation” value is reported as “Inert as tested”. Also, the Quenching counter-screen entry in data set [1] is “Flagged (Significant fluorescence quenching was defined as signal reduction greater than 25% of the corresponding fluorophore signal at any test compound concentration)”. In addition, the “% inhibition, p300/CBP” value with p300/CBP (@ 100 µM, ref 25 (Supplementary References)) is on record as less than 25%.
For Garcinol [Compound 13], at human La antigen, the “ALARM NMR, (-) DTT” value was “Positive”; the “ALARM NMR, (+) DTT” value is recorded as “Positive”; the “ALARM NMR interpretation” value is “Nonspecific perturbation”. In addition, the Quenching counter-screen result in data set [1] is given as “Flagged (Significant fluorescence quenching was defined as signal reduction greater than 25% of the corresponding fluorophore signal at any test compound concentration)”. Further, the IC50 with p300/CBP was 5 µM.

These data come from paper PMC5688144, “Assay interference and off-target liabilities of reported histone acetyltransferase inhibitors” (Nature Communications, 2017).
